Test results from patent US11779572B1, “Methods of treating gastrointestinal stromal tumors” (Deciphera Pharmaceuticals, LLC, priority 2022, dated 2023).
≈ marks a conversion by molar mass, not a printed value. Read-outs that look alike come from different tables or passages of the source.

Columns and labels:
[1] = Food effect (high-fat meal) on exposure; format: in vivo, human; conditions: 150 mg dose of ripretinib
Protocol: The effect of a high-fat breakfast on ripretinib and Compound A exposure was evaluated. A high fat meal consisted of approximately 150, 250, and 500-600 calories from protein, carbohydrate, and fat, respectively. […] The food effect is not considered to be clinically significant based on exposure-response analysis. Therefore, ripretinib may be taken with or without food at approximately same time each day.

[2] = biological target: T1, CYP2C8 (Homo sapiens, UniProt P10632); assay: Contribution of CYP enzymes to metabolism, in vitro data; format: in vitro ADME; conditions: base model, based on in vitro data
T1 sequence (P10632 1-490): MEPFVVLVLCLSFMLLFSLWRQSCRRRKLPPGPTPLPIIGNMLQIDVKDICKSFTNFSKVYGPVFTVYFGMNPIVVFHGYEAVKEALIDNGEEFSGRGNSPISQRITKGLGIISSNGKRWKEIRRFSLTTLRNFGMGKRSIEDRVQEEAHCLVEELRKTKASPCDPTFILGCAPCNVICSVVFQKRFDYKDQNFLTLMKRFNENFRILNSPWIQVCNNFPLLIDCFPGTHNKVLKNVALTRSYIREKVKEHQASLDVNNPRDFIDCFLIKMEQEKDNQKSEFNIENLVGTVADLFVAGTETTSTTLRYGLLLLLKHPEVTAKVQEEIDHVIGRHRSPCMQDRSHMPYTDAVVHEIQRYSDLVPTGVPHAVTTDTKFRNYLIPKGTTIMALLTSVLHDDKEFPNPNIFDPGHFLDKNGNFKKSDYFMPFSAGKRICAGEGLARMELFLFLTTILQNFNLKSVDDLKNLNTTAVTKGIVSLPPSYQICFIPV
Text: (§2) A PBPK model that included a mechanistic absorption model was developed.

[3] = Coadministration with pantoprazole (proton-pump inhibitor); format: in vivo, human; conditions: 40 mg QD pantoprazole with 150 mg QD ripretinib
Protocol: The effect of a proton-pump inhibitor on the exposure of ripretinib was evaluated.

[4] = Observed clinical PK after single and multiple doses; format: in vivo; conditions: human, plasma, oral; SD administration, healthy participants
Protocol: CYP3A4 inactivation parameters and induction parameters were subsequently incorporated in the model to assess the net effect on drug clearance at steady state. Due to the uncertainty in the in vitro CYP3A4 MBI data and CYP3A4 induction data, a series of sensitivity analysis was performed. […] Therefore, the in vitro CYP3A4 interaction data were used in the final model. The simulated profiles of ripretinib and DP-5439 in virtual participants were compared to the clinical data. […] The predicted mean AUC0-12 values for DP-5439 on Day 1 were within 2-fold (majority within 1.5-fold) of the observed values, except for the 250-mg QD dose. The mean AUC0-12 and Cmax values for DP-5439 on Day 15 were under-predicted. […] For example, the reported AUCs for ripretinib and DP-5439 at the 150-mg QD dose level were 1.66 and 5.29, respectively. […] The mechanisms for the accumulation of DP-5439 were unclear.

[5] = biological target: CYP2D6 (Homo sapiens, UniProt P10635); assay: Contribution of CYP enzymes to metabolism, in vitro data; format: in vitro ADME; conditions: base model, based on in vitro data
Sequence of CYP2D6 (P10635 whole entry): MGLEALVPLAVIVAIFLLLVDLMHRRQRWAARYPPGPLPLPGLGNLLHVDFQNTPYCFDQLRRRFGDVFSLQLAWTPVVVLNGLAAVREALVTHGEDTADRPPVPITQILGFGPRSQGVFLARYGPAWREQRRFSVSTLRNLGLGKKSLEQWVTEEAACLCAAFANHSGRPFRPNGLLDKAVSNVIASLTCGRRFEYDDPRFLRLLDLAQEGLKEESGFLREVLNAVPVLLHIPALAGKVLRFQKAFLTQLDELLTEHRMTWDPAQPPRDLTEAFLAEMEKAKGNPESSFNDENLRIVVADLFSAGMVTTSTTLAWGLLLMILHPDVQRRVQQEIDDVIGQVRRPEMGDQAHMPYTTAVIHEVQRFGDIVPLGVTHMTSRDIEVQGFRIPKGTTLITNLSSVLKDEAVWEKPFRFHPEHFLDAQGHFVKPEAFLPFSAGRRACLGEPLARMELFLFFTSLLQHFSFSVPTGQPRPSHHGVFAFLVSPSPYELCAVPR
Text: as §2

[6] = Solubility in buffers; format: physicochemical
[7] = Unbound fraction / plasma protein binding; format: in vitro ADME, human; conditions: human, plasma, oral, 50 mg, healthy participants and participants with hepatic impairment; clinical samples; read-out: mean unbound fraction fu %
Text: (§1) Both ripretinib and DP-5439 display high binding to plasma proteins in vitro; therefore, clinical samples were collected to investigate the effect of HI on the unbound fraction (fu) % for both analytes. Distributions of individual mean fu % for both ripretinib and DP-5439 show high variability between participants. The ripretinib mean fu % was ≤0.6% in healthy participants and in participants with hepatic impairment. The DP-5439 fu % was ≤0.5% in healthy participants and 0.2% to 1.4% in participants with hepatic impairment. No clear trend could be established between unbound ripretinib and DP-5439 PK parameters and the degrees of HI.

[8] = system: plasma proteins; assay: Unbound fraction / plasma protein binding; format: in vitro ADME, human
Text: as §1

[9] = system: patients with advanced GIST; assay: Example 1 study: patient reported outcomes (EQ-5D-5L VAS, EORTC QLQ-C30); format: in vivo, human; conditions: 150 mg QD
Protocol: Patient reported outcomes were assessed by EQ-5D-5L, which provides a visual analogue scale (VAS), and EORTC QLQ-C30, which provides physical function and role function scales. The EQ-5D-5L VAS (or EQ-VAS) records the respondent's overall current health on a vertical visual analogue scale and provides a quantitative measure of the patient's perception of overall health. These patient outcomes were reported across 28-day cycles of receiving 150 mg QD ripretinib or placebo.
The EORTC QLQ-C30 is an assessment of function and symptoms of therapy by cancer patient, and is not specific to any cancer. The EORTC QLQ-C30 is a 30-question plus one global health status, including 5 functional scales, 3 symptom scales and a global health status.

## CCn1c(=O)c(-c2cc(NC(=O)Nc3ccccc3)c(F)cc2Br)cc2cnc(NC)cc21 [ripretinib]
[1]
  AUC0-24h higher with a high-fat meal: 30%
  Cmax higher with a high-fat meal: 22%
[2]
  share of metabolism assigned to CYP2C8: 23%
[3]
  plasma exposure when ripretinib is coadministered with pantoprazole: No clinically significant differences
[4]
  half-life: ~14 h
[5]
  share of metabolism assigned to CYP2D6: 18%
[6]
  solubility: pH-dependent solubility
[6]; fassgf or other biorelevant, intestinal buffer (pH 6.5), read-out: solubility
  solubility: 123 µg/mL (≈ 241 µM)
[6]; simulated gastric fluid, gastric buffer (pH 2.0), read-out: solubility
  solubility: 178 µg/mL (≈ 349 µM)
[7]
  fraction unbound: ≤ 0.006
[8]; in vitro
  binding to plasma proteins: high binding
[8]; visual assessment
  impact of HI (albumin, ALP, ALT, AST, bilirubin changes) on unbound exposure: did not appear to have an impact
[9]; baseline to C2D1
  EORTC QLQ-C30 physical function score, average improvement from baseline: 1.6
  EORTC QLQ-C30 role function score, average improvement from baseline: 3.5
[9]; baseline to Cycle 2, Day 1
  EQ-VAS score, average improvement from baseline: 3.7
[9]; scale 1 to 7
  EORTC QLQ-C30 Question C29 (overall health) score improvement: 0.20
  EORTC QLQ-C30 Question C30 (overall quality of life) score improvement: 0.28
